{"source": "patent US12617776B2", "about": "(priority 2020, dated 2026)", "key": {"physchem [1]": {"test": "physchem", "description": "The aliquot volumes were typically 25-100 μL.\nFrom the infrared (IR) transmission data of the sample vials, dissolution and precipitation events were recorded as the point of complete transmission of IR and the onset of turbidity by IR respectively.\nSamples were held at ambient temperature for 18 hours to maximize the chance of precipitation. Any recoverable solids were analyzed by XRPD."}, "physchem [2]": {"test": "physchem", "details": "water, thermodynamic from solid", "procedure": "The aliquot volumes were typically 10-20 μL. Complete dissolution of the test material was determined by visual inspection. The solubility was estimated from these experiments based on the total solvent used to provide complete dissolution."}, "physchem [3]": {"test": "physchem", "details": "25 °C, pH 6.6, water, thermodynamic from solid", "description": "The mixture was stirred and after 30 minutes a thick suspension was formed. Further aliquots (20 μL) of water were added until a fine suspension was formed. This was stirred at 25° C. overnight and filtered to yield a clear solution. The solution was weighed and evaporated to constant weight to determine the solubility."}, "[4]": {"test": "Solubility estimation of AAT-730 by aliquot addition", "format": "physicochemical", "details": "for Solubility range: 20° C.", "description": "The aliquot volumes were typically 20-200 μL. […] Samples were held at ambient temperature for at least 18 hours to maximize the chance of precipitation. Any recoverable solids were analyzed by XRPD."}, "[5]": {"test": "Thermal stressing of AAT-730 free base forms (Method 2-9)", "format": "physicochemical", "details": "for XRPD after thermal stress: sealed vial, several days"}, "[6]": {"test": "Salt screening experiments of AAT-730 (XRPD of isolated solids)", "details": "salt screen", "description": "Solutions of the free base in the chosen solvent were added to either solutions of the salt former, or if the salt was not soluble in the solvent, slurries of the salt formers. Any solids which precipitated were recovered and analyzed by XRPD analysis to determine if the solid was crystalline.\nThe required acid (1 molar equivalent) was added to each HPLC vial and the API stock solution (containing 30 mg of API) was added. The mixtures were stirred at 300 rpm (ambient temperature) for up to 16 hours. Any solids which precipitated were isolated by centrifugation, solvent decanted and solids dried with thin strips of filter paper prior to analysis by XRPD. Any solutions were evaporated to dryness and solids analyzed by XRPD. Gels were either triturated or temperature cycled in MTBE.\nAPI (30 mg), acid co-former (1 mol. eq.) and ethanol (300 μL) were added to HPLC vials and stirred at 40° C. for up to 16 hours. Solids were recovered by centrifugation, solvent decanted and dried with thin strips of filter paper prior to analysis by XRPD. Solutions were evaporated to dryness.\nGels isolated from the screening experiments were triturated in either MTBE or EtOAc to induce precipitation. MTBE or EtOAc (200 μL) was added to the gel and stirred at 40° C. for up to 3 hours prior to cooling to ambient and stirring for up to 48 hours. Any solids were isolated by centrifugation, solvent decanted and solids dried with thin strips of filter paper prior to analysis by XRPD. Any solutions were evaporated to dryness.\nGels isolated from screening experiments were temperature cycled in MTBE according to the following program: • Heating from 20° C. to 40° C. at 0.2° C./minute. • Cooling to 20° C. at 0.1° C./minute. • Stirring speed 400 rpm.\nThe vials were sealed and the contents milled using a Fritsch Pulverisette 5 planetary mill (30 repetitions of 20 minutes milling at 400 rpm and 20 minutes pause). The resultant material was analyzed using XRPD.\nSome of the acid co-formers had pKa values which were suitable for forming either hemi or bis-salts and experiments were carried out using these acids. Crystalline solids were isolated from the experiments using 0.5 mol. eq. of EDSA but these appeared to be composed of polymorphs of the free base and salt formation hadn't occurred with 0.5 mol. eq. of EDSA. The EDSA salt formed with 2 mol. eq. of EDSA yielded solids with the same XRPD pattern as the mono-EDSA salt. Two different crystalline salts were isolated from the reactions with HCl and these may be the mono and bis-HCl salts, however stoichiometry cannot be determined by ^1H NMR. The salt formation with MSA yielded the bis-MSA salt and this is discussed in Example 3-16. The salt isolated with glutaric acid has the same XRPD pattern as the salt isolated with 1 mol. eq. of glutaric acid and is a mono-glutarate salt (Example 3-17). A solid was isolated from the experiment with 2 mol. eq. of sulfuric acid and this may be a sulfate."}, "[7]": {"test": "Humidity and temperature stressing of AAT-730 free base (XRPD, 1H NMR)", "format": "physicochemical", "details": "for XRPD analysis of post-stressed sample (physical form): 7 days", "description": "The stability was also tested at a range of elevated relative humidity conditions for 7 days."}}, "note": "“Also recorded” adds a separate entry of the source. Structures can show the parent of a compound that is named as a salt.", "data": [{"smiles": "CN(C)CCn1c(CC(C)(C)C)nc2cc(S(=O)(=O)C3CN(CCO)C3)ccc21", "note": "[AAT-730 HCl salt Pattern 1]", "values": [{"measurement": "solubility", "setting": "physchem [1]; DMSO/water (80/20), ambient temperature, aliquot addition", "value": "greater than or equal to 20 mg/mL"}, {"measurement": "solubility", "setting": "physchem [2]", "value": "164 to 205", "unit": "mg/mL"}]}, {"smiles": "CN(C)CCn1c(CC(C)(C)C)nc2cc(S(=O)(=O)C3CN(CCO)C3)ccc21", "note": "[AAT-730 HCl salt Pattern 2]", "values": [{"measurement": "solubility", "setting": "physchem [1]; pH 6, water, thermodynamic from solid, aqueous solubility, water, pH 6-7, aliquot addition", "value": "197 to 263", "unit": "mg/mL"}]}, {"smiles": "CN(C)CCn1c(CC(C)(C)C)nc2cc(S(=O)(=O)C3CN(CCO)C3)ccc21", "note": "[AAT-730 HCl salt, HCl salt of 2-[3-({1-[2-(dimethylamino)ethyl]-2-(2,2-dimethylpropyl)-1H-1,3-benzodiazol-5-yl}sulfonyl)azetidin-1-yl]ethan-1-ol]", "values": [{"measurement": "solubility", "setting": "physchem [1]; 20 °C, aqueous with cosolvent or surfactant or cyclodextrin, thermodynamic from solid, Solubility at 20° C., EtOH/water (50/50), aliquot addition", "value": "205 to 273", "unit": "mg/mL"}, {"measurement": "solubility", "setting": "physchem [1]; 20 °C, organic solvent or mixture, thermodynamic from solid, Solubility at 20° C., DMSO/water (80/20, Aw at most 0.27), aliquot addition", "value": "22 to 25", "unit": "mg/mL"}, {"measurement": "solubility", "setting": "physchem [1]; 20 °C, organic solvent or mixture, thermodynamic from solid, Solubility at 20° C., THF/water (13/1, Aw at most 0.9), aliquot addition", "value": "< 20", "unit": "mg/mL"}, {"measurement": "solubility", "setting": "physchem [1]; 20 °C, organic solvent or mixture, thermodynamic from solid, Solubility at 20° C., acetone, aliquot addition", "value": "< 20", "unit": "mg/mL"}, {"measurement": "solubility", "setting": "physchem [1]; 20 °C, organic solvent or mixture, thermodynamic from solid, Solubility at 20° C., acetone/water (20/1, Aw at most 0.6), aliquot addition", "value": "< 20", "unit": "mg/mL"}, {"measurement": "solubility", "setting": "physchem [1]; 20 °C, organic solvent or mixture, thermodynamic from solid, Solubility at 20° C., acetonitrile, aliquot addition", "value": "< 21", "unit": "mg/mL"}, {"measurement": "solubility", "setting": "physchem [1]; 20 °C, organic solvent or mixture, thermodynamic from solid, Solubility at 20° C., dichloromethane, aliquot addition", "value": "< 20", "unit": "mg/mL"}, {"measurement": "solubility", "setting": "physchem [1]; 20 °C, organic solvent or mixture, thermodynamic from solid, Solubility at 20° C., ethanol, aliquot addition", "value": "< 21", "unit": "mg/mL"}, {"measurement": "solubility", "setting": "physchem [1]; 20 °C, organic solvent or mixture, thermodynamic from solid, Solubility at 20° C., methanol, aliquot addition", "value": "< 20", "unit": "mg/mL"}, {"measurement": "solubility", "setting": "physchem [1]; 20 °C, organic solvent or mixture, thermodynamic from solid, Solubility at 20° C., tetrahydrofuran, aliquot addition", "value": "< 20", "unit": "mg/mL"}, {"measurement": "solubility", "setting": "physchem [1]; aqueous with cosolvent or surfactant or cyclodextrin, thermodynamic from solid, solubility", "value": "≥ 20", "unit": "mg/mL"}, {"measurement": "solubility", "setting": "physchem [1]; organic solvent or mixture, thermodynamic from solid, solubility, DMSO/water (80/20), ambient temperature, aliquot addition", "value": "≥ 20", "unit": "mg/mL"}, {"measurement": "solubility thermodynamic", "setting": "physchem [3]", "value": "~220", "unit": "mg/mL"}]}, {"smiles": "CN(C)CCn1c(CC(C)(C)C)nc2cc(S(=O)(=O)C3CN(CCO)C3)ccc21", "note": "[AAT-730, 2-[3-({1-[2-(dimethylamino)ethyl]-2-(2,2-dimethylpropyl)-1H-1,3-benzodiazol-5-yl}sulfonyl)azetidin-1-yl]ethan-1-ol]", "values": [{"measurement": "Solubility range", "setting": "[4]; 2-propanol, isopropyl alcohol (IPA)", "value": "81 to 87", "unit": "mg/mL"}, {"measurement": "Solubility range", "setting": "[4]; EtOH/water (96/4, Aw at most 0.25)", "value": "313 to 417", "unit": "mg/mL"}, {"measurement": "Solubility range", "setting": "[4]; MeOH/water (84/16, Aw at most 0.44)", "value": "638 to 1275", "unit": "mg/mL"}, {"measurement": "Solubility range", "setting": "[4]; THF/water (96/4, Aw at most 0.74)", "value": "410 to 615", "unit": "mg/mL"}, {"measurement": "Solubility range", "setting": "[4]; acetone", "value": "118 to 157", "unit": "mg/mL"}, {"measurement": "Solubility range", "setting": "[4]; acetone/water (50/50, Aw at most 0.91)", "value": "618 to 1235", "unit": "mg/mL"}, {"measurement": "Solubility range", "setting": "[4]; acetonitrile (ACN)", "value": "145 to 164", "unit": "mg/mL"}, {"measurement": "Solubility range", "setting": "[4]; anisole", "value": "58 to 60", "unit": "mg/mL"}, {"measurement": "Solubility range", "setting": "[4]; cyclohexane", "value": "<24", "unit": "mg/mL"}, {"measurement": "Solubility range", "setting": "[4]; dichloromethane (DCM)", "value": "360 to 504", "unit": "mg/mL"}, {"measurement": "Solubility range", "setting": "[4]; dimethyl sulfoxide (DMSO)", "value": "242 to 303", "unit": "mg/mL"}, {"measurement": "Solubility range", "setting": "[4]; dioxane", "value": "117 to 129", "unit": "mg/mL"}, {"measurement": "Solubility range", "setting": "[4]; ethanol (EtOH)", "value": "213 to 256", "unit": "mg/mL"}, {"measurement": "Solubility range", "setting": "[4]; ethyl acetate (EtOAc)", "value": "27 to 28", "unit": "mg/mL"}, {"measurement": "Solubility range", "setting": "[4]; methanol (MeOH)", "value": ">510", "unit": "mg/mL"}, {"measurement": "Solubility range", "setting": "[4]; methyl isobutyl ketone (MIBK)", "value": "<26", "unit": "mg/mL"}, {"measurement": "Solubility range", "setting": "[4]; methyl tert-butyl ether (MTBE)", "value": "<26", "unit": "mg/mL"}, {"measurement": "Solubility range", "setting": "[4]; tetrahydrofuran (THF)", "value": "246 to 492", "unit": "mg/mL"}, {"measurement": "solubility", "setting": "[4]; thermodynamic from solid, water, ambient temperature, aliquot addition, read-out: aqueous solubility", "value": "367 to 514", "unit": "mg/mL"}, {"measurement": "Solubility range", "setting": "[4]; toluene", "value": "<25", "unit": "mg/mL"}, {"measurement": "XRPD after thermal stress", "setting": "[5]; 40° C.", "value": "Pattern A +"}, {"measurement": "XRPD after thermal stress", "setting": "[5]; 60° C.", "value": "Pattern A +"}, {"measurement": "physical stability to thermal stressing", "setting": "[5]; at the temperatures tested (40 or 60° C.)", "value": "physically unstable"}, {"measurement": "XRPD Result", "setting": "[6]; EDSA 2 mol. eq., THF, sample CAT0001E-019-04", "value": "AAT-730 EDSA"}, {"measurement": "XRPD Result", "setting": "[6]; H2SO4 2 mol. eq., THF, sample CAT0001E-019-08", "value": "possible sulfate Pattern B"}, {"measurement": "XRPD Result", "setting": "[6]; HCl 2 mol. eq., EtOH, sample CAT0001E-019-05B", "value": "AAT-730 HCl Pattern B"}, {"measurement": "XRPD Result", "setting": "[6]; HCl 2 mol. eq., THF, sample CAT0001E-019-05", "value": "AAT-730 HCl Pattern A**"}, {"measurement": "XRPD Result", "setting": "[6]; L-aspartic acid 0.5 mol. eq., THF, sample CAT0001E-019-09", "value": "API"}, {"measurement": "XRPD Result", "setting": "[6]; L-glutamic acid 0.5 mol. eq., THF, sample CAT0001E-019-11", "value": "API"}, {"measurement": "XRPD Result", "setting": "[6]; MSA 2 mol. eq., THF, sample CAT0001E-019-06", "value": "AAT-730 MSA Pattern B"}, {"measurement": "XRPD Result", "setting": "[6]; glutaric acid 0.5 mol. eq., THF, sample CAT0001E-019-12", "value": "AAT-730 glutarate"}, {"measurement": "1H NMR analysis of post-stressed samples", "setting": "[7]; 1 week at 25° C./60% RH, 40° C./75% RH, 70° C./75% RH", "value": "no change"}, {"measurement": "XRPD analysis of post-stressed sample (physical form)", "setting": "[7]; 25° C./60% RH", "value": "remained as an anhydrate"}, {"measurement": "XRPD analysis of post-stressed sample (physical form)", "setting": "[7]; 40° C./75% RH, listed as AAT-730 free base", "value": "change in form to the hydrate; also recorded: converted to a hydrate"}, {"measurement": "XRPD analysis of post-stressed sample (physical form)", "setting": "[7]; 70° C./75% RH, listed as AAT-730 free base", "value": "change in form to the hydrate; also recorded: converted to a hydrate"}]}]}
